This passage reports IC50 results from patent publication US20250326732A1 (Pretzel Therapeutics, Inc., priority 2021, published 2025).

In general, IC50 refers to the point on the concentration scale where inhibition reaches its midpoint. Lower therefore signals higher potency.

For this assay, the target named is POLRMT (Homo sapiens (Human), UniProt O00411). As to the kind of experiment: homogeneous TR-FRET assay of mitochondrial transcription (inhibition of POLRMT). The format is biochemical. The note with it: 7.5 nM POLRMT, 15 nM TFB2M, 30 nM TFAM, 0.5 nM DNA template, 500 μM NTPs, 37° C. for 60 minutes. A digest of the protocol: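 POLRMT transcription from linearized pUC-LSP DNA template; RNA product detected by hybridization of ATTO647 acceptor (1 nM) and biotinylated donor (3 nM) probes plus Europium-streptavidin. Reaction stopped with EDTA/700 mM NaCl buffer, pH 7.5.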
Sequence of POLRMT (O00411 42-1230): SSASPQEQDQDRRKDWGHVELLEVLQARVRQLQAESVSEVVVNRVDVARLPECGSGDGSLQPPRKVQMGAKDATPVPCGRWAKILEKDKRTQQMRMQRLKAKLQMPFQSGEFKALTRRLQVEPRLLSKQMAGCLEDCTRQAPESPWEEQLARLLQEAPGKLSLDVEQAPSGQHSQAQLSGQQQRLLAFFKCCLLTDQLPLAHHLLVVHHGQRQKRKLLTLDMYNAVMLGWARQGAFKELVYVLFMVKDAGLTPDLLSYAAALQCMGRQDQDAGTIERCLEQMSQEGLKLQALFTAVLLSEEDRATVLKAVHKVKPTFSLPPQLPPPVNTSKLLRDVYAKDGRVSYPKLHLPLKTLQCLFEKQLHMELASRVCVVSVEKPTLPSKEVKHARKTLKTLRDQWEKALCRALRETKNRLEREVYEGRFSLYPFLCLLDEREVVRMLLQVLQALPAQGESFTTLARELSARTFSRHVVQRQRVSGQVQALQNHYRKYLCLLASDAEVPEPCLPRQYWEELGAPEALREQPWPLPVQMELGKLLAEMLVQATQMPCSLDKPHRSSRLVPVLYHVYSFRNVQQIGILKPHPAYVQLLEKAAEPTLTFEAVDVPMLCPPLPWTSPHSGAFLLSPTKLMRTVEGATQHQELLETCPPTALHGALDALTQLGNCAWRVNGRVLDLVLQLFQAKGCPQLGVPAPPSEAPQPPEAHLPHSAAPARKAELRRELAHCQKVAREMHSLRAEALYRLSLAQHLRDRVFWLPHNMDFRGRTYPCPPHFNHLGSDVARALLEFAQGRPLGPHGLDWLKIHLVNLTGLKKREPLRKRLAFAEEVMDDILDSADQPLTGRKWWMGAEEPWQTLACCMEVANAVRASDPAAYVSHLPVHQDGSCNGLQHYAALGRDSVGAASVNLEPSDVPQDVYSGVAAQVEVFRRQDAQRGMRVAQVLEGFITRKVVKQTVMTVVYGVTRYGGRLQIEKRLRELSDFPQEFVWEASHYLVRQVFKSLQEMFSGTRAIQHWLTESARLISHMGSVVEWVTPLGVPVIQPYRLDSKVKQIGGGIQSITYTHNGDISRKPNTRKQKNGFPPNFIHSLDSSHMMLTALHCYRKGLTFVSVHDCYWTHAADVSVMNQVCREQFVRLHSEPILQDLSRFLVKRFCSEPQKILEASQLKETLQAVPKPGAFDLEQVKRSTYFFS
A general note: In TR-FRET formats the signal depends on donor and acceptor labels being close together.

On to `Cc1ccccc1-c1cc(=O)oc2cc(N(C)[C@@H](C)CC(=O)O)ccc12` [Example 228, (S)-3-(methyl(2-oxo-4-(o-tolyl)-2H-chromen-7-yl)amino)butanoic acid], for which the IC50 came out at 200 nM.

For the compound `Cc1ccccc1-c1cc(=O)oc2cc(CN(C)C(=O)C3CCC(C(=O)O)CC3)ccc12` (stereo not shown) [Example 229, 4-(methyl((2-oxo-4-(o-tolyl)-2H-chromen-7-yl)methyl)carbamoyl)cyclohexane-1-carboxylic acid], the IC50 stood at 100 nM.

In turn, `Cc1ccccc1-c1cc(=O)oc2cc(N(C)[C@H](C)CC(=O)O)ccc12` [Example 230, (R)-3-(methyl(2-oxo-4-(o-tolyl)-2H-chromen-7-yl)amino)butanoic acid] gave an IC50 of 200 nM.

Compound `Cc1ccccc1-c1cc(=O)oc2cc(CC(=O)O)ccc12` [Example 233, 2-(2-oxo-4-(o-tolyl)-2H-chromen-7-yl) acetic acid] registered an IC50 of 5000 nM.
